Data taken from patent US20040235856A1, “Treatment of incontinence” (Pfizer Inc, priority 2003, published 2004).
Where “and” joins values, the source holds several entries; their conditions need not be identical. Equal values may be shown once.

Tests used:
[1] = tested on: ovariectomised, birth traumatised rats; assay: Leak point pressure in ovariectomised, birth traumatised female rats; format: in vivo, Sprague Dawley rats
Procedure: In order to evaluate whether the effects of 5-HT2C agonists on urethral function was present in species other than the guinea pig, leak point pressure was measured in the absence and presence of MK-212 in a known model of urethral function in the rat (Lin A. S. et al. (1998) Urology 52:143-51; Sievert K. D. et al. (2001) J Urol. 166, 311-317; Resplande J et al (2002) J Urol. 168, 323-30), namely ovariectomised, birth traumatised rats.
Ovariectomy and simulated birth trauma were carried out on 8 female Sprague Dawley rats as described previously (Lin A. S. et al. (1998) Urology 52:143-51; Sievert K. D. et al. (2001) J Urol. 166, 311-317; Resplande J et al (2002) J Urol. 168, 323-30). Six weeks subsequent to recovery all animals underwent investigation of leak point pressure, initially rats were anaesthetised with halothane (4%), carried in oxygen (3-4L min^−1) and were maintained at an appropriate surgical plane with urethane (25% w/v; 0.5 ml 100 g^−1 body weight). The trachea, a jugular vein and a carotid artery were cannulated for respiratory ventilation, injection of test compound and monitoring of blood pressure, respectively. A midline laporatomy was performed to expose the urinary bladder and a cystometry tube was inserted through a small incision in the dome of the bladder and secured in place. The abdominal wound was closed tightly around the externalised cystometry tube, which, in turn, was connected to an infusion pump and pressure transducer, for filling the bladder and for recording intravesical pressure, respectively. Baseline leak point pressures (LPP) were established by slow elevation of a saline containing bag connected to the bladder and pressure transducer via the cystometry tube. LPP was defined as the bladder pressure at the point where fluid was first noted at the urethral meatus. Between 4 and 7 baseline readings were made before iv bolus administration of MK-212 (0.1 mg kg^−1). Following a 2 min delay to allow for distribution LPP measurements were repeated in an identical manner to that described above, between 3 and 8 measures were taken.

mice = settings: subcutaneous administration; only significant at the highest dose tested; cited from earlier work
anaesthetised guinea pig [2] = assay: EUS EMG activity during normal bladder filling in anaesthetised guinea pig; format: in vivo
Description: (§1) In order to explore what subtypes of 5-HT receptors may be involved in enhancing the sacral spinal drive to the EUS, the effects of m-CPP (Sigma Aldrich Product number C-5554), MK-212 (Tocris Cat No 0941), YM-348 (WO 01/83487), Ro 60-0175 (Tocris Cat No 1854), WAY-161503 (Tocris Cat No 1801), and Example 1-N in WO 03/000663, which have been reported to be 5-HT2C receptor agonists, were investigated in an anaesthetised guinea pig model specifically designed to measure urethral continence mechanisms and leak point pressure using two paradigms. Firstly the activity of urethral striated musculature in response to increased abdominal pressure and so the pressure required to induce leak and secondly, the response of urethral striated musculature during normal bladder filling so as to maintain continence, as measured by changes in electromyographic activity of this continence maintaining sphincter.
Experiments were performed in adult female guinea pigs, weighing 620-707 g. All animals were initially anaesthetised with halothane (4%), carried in oxygen (3-4L min^−1) and were maintained at an appropriate surgical plane with urethane (25% w/v; 0.5 ml 100 g^−1 body weight). The trachea, a jugular vein and a carotid artery were cannulated for respiratory ventilation, injection of test compound and monitoring of blood pressure, respectively. A midline laporatomy was performed to expose the urinary bladder and a cystometry tube was inserted through a small incision in the dome of the bladder and secured in place. The abdominal wound was closed tightly around the externalised cystometry tube, which, in turn, was connected to an infusion pump and pressure transducer, for filling the bladder and for recording intravesical pressure, respectively. […]
Following a 30 min post surgery stabilisation period, the bladder was filled at a rate of 150 μl min^−1 with physiological saline (room temperature), until initiation of a micturition reflex or leak was observed. […] Additionally, EUS EMG activity and intravesical pressures were recorded throughout bladder filling. […]

anaesthetised guinea pig [3] = assay: Abdominal weight inducing micturition or leak and EUS EMG activity in anaesthetised guinea pig; format: in vivo; settings: for % of Control Abdominal Weight Inducing Micturition or Leak: bladder at 75% of threshold volume
Description: as §1
Experiments were performed in adult female guinea pigs, weighing 620-707 g. All animals were initially anaesthetised with halothane (4%), carried in oxygen (3-4L min^−1) and were maintained at an appropriate surgical plane with urethane (25% w/v; 0.5 ml 100 g^−1 body weight). The trachea, a jugular vein and a carotid artery were cannulated for respiratory ventilation, injection of test compound and monitoring of blood pressure, respectively. A midline laporatomy was performed to expose the urinary bladder and a cystometry tube was inserted through a small incision in the dome of the bladder and secured in place. The abdominal wound was closed tightly around the externalised cystometry tube, which, in turn, was connected to an infusion pump and pressure transducer, for filling the bladder and for recording intravesical pressure, respectively. Electromyographic (EMG) wire leads were inserted into the EUS striated muscle layer opposed to the dorsal surface of the symphysis pubis.
Following a 30 min post surgery stabilisation period, the bladder was filled at a rate of 150 μl min^−1 with physiological saline (room temperature), until initiation of a micturition reflex or leak was observed. Following micturition or leak, the bladder was drained via the externalised cystometry tube. Bladder filling was repeated at least 3 times in order to establish a mean bladder threshold capacity for initiation of micturition or leak. Additionally, EUS EMG activity and intravesical pressures were recorded throughout bladder filling. Subsequently 1 of 2 protocols was carried out.
1. Once a threshold bladder volume, which induced micturition or leak, was established, 75% of this volume was used for the next stage of the experiment. The bladder was filled (150 μl min^−1) to 75% of threshold volume with physiological saline and, through the use of a specially constructed frame, weights were positioned on the ventral surface of the abdomen of the animal just rostral to the position of the bladder. Starting at 50 g, then 60 g and then at increasing increments of 20 g, weights were placed on the animal's abdomen until micturition/leakage of fluid was observed. EUS EMG activity and intravesical pressure were recorded while weights were applied to the abdomen. The main parameters investigated were minimum abdominal weight required to induce micturition or leak at 75% of bladder threshold volume, and maximum EUS EMG activity at micturition or leak. Test drug or vehicle was injected intravenously immediately after the bladder was filled to 75% of threshold volume, and 60-120 sec before applying the first abdominal weight (50 g).
Agonists were tested at doses between 0.1 and 3.0 mg kg^−1. In addition the effect of the reported 5-HT2C selective antagonist SB 242084 (Sigma, Cat-No: S-8061) (1 mg kg^−1) on agonist-induced effects was investigated in some animals.

[4] = 0.1 mg/kg iv bolus, individual animals 1-8
[5] = 0.3 mg kg^-1, filling 150 μl min^-1, FIG. 1b

With `Clc1cncc(N2CCNCC2)n1` [MK-212] the “animals in which LPP pressure increased” value ([1]; 0.1 mg kg^-1) was 7 of 8, the “mean increase in LPP (mean ± standard deviation)” value ([1]; 0.1 mg kg^-1, N=7) was 7.1±2.6 mmHg and the “Increase in LPP over baseline” value [1, 4] was 10.2 mmHg and 5.5 mmHg and 7.0 mmHg and 0.4 mmHg and 3.6 mmHg and 6.0 mmHg and 10.9 mmHg and 6.7 mmHg. For the same compound, the “LPP (mean ± SD) after MK-212” value [1, 4] was 30.6 (3.8) mmHg and 23.4 (3.4) mmHg and 21.8 (1.7) mmHg and 18.2 (1.5) mmHg and 27.6 (1.5) mmHg and 30.7 (1.2) mmHg and 33.5 (1.6) mmHg and 23.0 (2.6) mmHg.
For `FC(F)(F)c1ccc(N2CCNCC2)nc1Cl` [Org-12962, 1-[6-chloro-5-(trifluoromethyl)-2-pyridinyl]piperazine], the “urine wet spot size” value (mice) is listed as “reduce urine wet spot size”.
For `Cc1cc2c(cc1Cl)N(C(=O)Nc1ccc(Oc3cccnc3C)nc1)CC2` [SB 242084], the “effect of antagonist on agonist-induced effects” value (anaesthetised guinea pig [2]; 1 mg kg^-1, in those animals tested) was “abolished the effects of applied 5HT2c agonists”.
With `O=C1Nc2cc(Cl)c(Cl)cc2N2CCNCC12` (stereo not shown) [Way 161503] the “EUS EMG activity during normal bladder filling” value (anaesthetised guinea pig [2]; [5]) was “potentiated” and the “bladder volume at which EUS EMG activity increases” value (anaesthetised guinea pig [2]; [5]) was “increases in activity occurred at lower bladder volumes than in drug free conditions”.
In the case of `Clc1cccc(N2CCNCC2)c1` [m-CPP, m-chlorophenylpiperazine], the “% of Control EUS EMG Activity” value (anaesthetised guinea pig [3]; 0.3 mg kg^-1 iv.) is reported as 110 ± 43 % of Control, the “% of Control Abdominal Weight Inducing Micturition or Leak” value (anaesthetised guinea pig [3]; 0.3 mg kg^-1 iv.) is reported as 128 ± 6 % of Control and the “% of Control EUS EMG Activity” value (anaesthetised guinea pig [3]; 1.0 mg kg^-1 iv.) is reported as 135 ± 10 % of Control. The “% of Control Abdominal Weight Inducing Micturition or Leak” value (anaesthetised guinea pig [3]; 1.0 mg kg^-1 iv.) was 139 ± 12 % of Control, the “increase in EUS EMG activity compared with controls” value (anaesthetised guinea pig [3]; 3.0 mg kg^-1) was 56% and the “increase of the weight required to induce micturition or leak compared with controls” value (anaesthetised guinea pig [3]; 3.0 mg kg^-1) was 66%. The “% of Control EUS EMG Activity” value (anaesthetised guinea pig [3]; 3.0 mg kg^-1 iv.) was 156 ± 18 % of Control and the “% of Control Abdominal Weight Inducing Micturition or Leak” value (anaesthetised guinea pig [3]; 3.0 mg kg^-1 iv.) was 166 ± 9 % of Control.
